Assay results taken from patent US7868007B2, “Triazolopyridine carboxamide derivatives, preparation thereof and therapeutic use thereof” (sanofi-aventis, priority 2007, dated 2011).

Experiments:
[1] = biological target: T1, MGL (monoacyl glycerol lipase) enzyme (Mus musculus, UniProt O35678); test: radioenzymatic assay of MGL inhibition (hydrolysis of [3H] 2-OG by mouse brain homogenate); format: biochemical; conditions: 50 μM 2-OG with [3H] 2-OG, 20 minutes preincubation, 20 minutes incubation at ambient temperature, read-out: IC50 (concentration which inhibits 50% of the control enzymatic activity of MGL)
T1 construct: the source of MGL enzyme is a homogenate of mouse brain from which the cerebellum and the medulla oblongata have been removed; from tissue; host or cells: mouse brain homogenate (cerebellum and medulla oblongata removed)
T1 sequence (O35678 1-303): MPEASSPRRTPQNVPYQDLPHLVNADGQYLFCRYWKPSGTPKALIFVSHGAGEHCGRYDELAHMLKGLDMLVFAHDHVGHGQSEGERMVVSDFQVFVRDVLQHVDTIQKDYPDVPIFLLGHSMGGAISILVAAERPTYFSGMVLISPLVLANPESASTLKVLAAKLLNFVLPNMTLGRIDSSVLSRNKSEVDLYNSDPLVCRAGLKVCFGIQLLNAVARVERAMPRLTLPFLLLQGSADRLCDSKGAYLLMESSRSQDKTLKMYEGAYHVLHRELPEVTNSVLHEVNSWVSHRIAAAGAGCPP
Procedure: The inhibitory activity with respect to MGL is given by the concentration which inhibits 50% of the activity of MGL.
The inhibitory activity was measured in a radioenzymatic assay based on measuring the product of hydrolysis of 2-oleoyl glycerol ([^3H] 2-OG) by MGL. The products of hydrolysis of [^3H] 2-OG, labeled on the glycerol, are oleic acid and [^3H]glycerol, and the source of MGL enzyme is a homogenate of mouse brain from which the cerebellum and the medulla oblongata have been removed. The mouse brains are removed, and stored at −80° C. until they are used or homogenized immediately for twice 5 seconds using a Precellys apparatus at 5000 rpm (Bertin) in a 10 mM tris-HCl, 150 mM NaCl, 1 mM EDTA buffer (pH 8) at 4° C. The concentration of the homogenates is then adjusted to 7.5 μg/μl.
The dilution series of the compounds is prepared from stock solutions at 20 mM in 100% DMSO. […]
Assaying of the MGL activity is carried out in a 96-well microplate in a final reaction volume of 100 μl. […] After stirring for 10 minutes, the microplate is centrifuged for 15 minutes at 4000 g and a 30 μl aliquot of the aqueous phase containing the [^3H]glycerol produced is removed and then counted for 5 minutes by liquid scintillation (Wallac 1450 Microbeta).

O=C(N1CCN(C(c2ccc(Cl)cc2)c2ccc(Cl)cc2)CC1)n1nnc2ncccc21 [Compound 4, {4-[Bis(4-chlorophenyl)methyl]piperazin-1-yl}[1,2,3]triazolo[4,5-b]pyridin-1-ylmethanone]
melting point: 163 to 165 °C (dec.)

O=C(N1CCN(C(c2ccc(F)cc2)c2ccc(F)cc2)CC1)n1nnc2ncc(Cl)cc21 [Compound 5, {4-[Bis(4-fluorophenyl)methyl]piperazin-1-yl}(6-chloro[1,2,3]triazolo[4,5-b]pyridin-1-yl)-methanone]
melting point: 167 to 169 °C (dec.)

O=C(N1CCN(C2c3ccccc3-c3ccccc32)CC1)n1nnc2ncccc21 [Compound 8, [4-(9H-Fluoren-9-yl)piperazin-1-yl][1,2,3]triazolo[4,5-b]pyridin-1-ylmethanone]
melting point: 170 to 172 °C (dec.)

O=C(N1CCN(C2c3ccccc3CCc3ccccc32)CC1)n1nnc2ncccc21 [Compound 7, [4-(10,11-Dihydro-5H-dibenzo[a,d]cyclohepten-5-yl)piperazin-1-yl][1,2,3]triazolo[4,5-b]-pyridin-1-ylmethanone]
melting point: 190 to 194 °C (dec.) | IC50 [1]: 25 nM

O=C(N1CCN(C(c2ccc(F)cc2)c2ccc(F)cc2)CC1)n1nnc2ncccc21 [Compound 3, {4-[Bis(4-fluorophenyl)methyl]piperazin-1-yl}[1,2,3]triazolo[4,5-b]pyridin-1-ylmethanone]
melting point: 151 to 153 °C (dec.)

O=C(N1CCN(C(c2ccccc2)c2ccccc2)CC1)n1nnc2ncc(Cl)cc21 [Compound 2, (4-Benzhydrylpiperazin-1-yl)(6-chloro[1,2,3]triazolo[4,5-b]pyridin-1-yl)methanone]
melting point: 173 to 175 °C (dec.)

O=C(N1CCN(C(c2ccccc2)c2ccccc2)CC1)n1nnc2ncccc21 [Compound 1, (4-Benzhydrylpiperazin-1-yl)[1,2,3]triazolo[4,5-b]pyridin-1-ylmethanone]
melting point: 146 to 148 °C (dec.) | IC50 [1]: 4 nM
